The numbers were not newly measured in US20160120870A1, “THE PROCESS FOR THE PREPARATION OF A PHARMACEUTICAL COMPOSITION COMPRISING RIVAROXABAN” (SANDOZ AG, priority 2013, published 2016), which cites them from elsewhere.

The conditions of the data set: background prior art, drug substance.

`O=C(NC[C@H]1CN(c2ccc(N3CCOCC3=O)cc2)C(=O)O1)c1ccc(Cl)s1` [Rivaroxaban, (S)-5-chloro-N-{[2-oxo-3-[4-(3-oxomorpholin-4-yl)phenyl]oxazolidin-5-yl]methyl}thiophene-2-carboxamide]: the water solubility result is listed as “relatively poor”.
